Measurements published in patent publication US6812230B2, “Non-peptide CCR1 receptor antagonists for the treatment of progressive renal fibrosis” (Schering Aktiengesellschaft, priority 2001, dated 2004).

Columns and labels:
collagen I protein = assay: Mouse UUO model: collagen I protein expression by Western blotting; type: in vivo, C57BL/6 mice; details: 10 days following UUO (UUO BX 1-10 d), Western blot
Method: (§1) Contralateral kidneys served as intraindividual controls.
From each mouse, a specimen of both kidneys was snap frozen in liquid nitrogen and stored at −80° C. Kidneys were homogenized in RIPA buffer (50 mM Tris-HCl, pH 8.0, 1% Nonidet P40, 0.5% sodium deoxycholate, 150 mM NaCl, 0.1% SDS, complete Protease-inhibitor tablet (Roche)). Extracted proteins were boiled in loading buffer for 10 minutes, resolved by 8% SDS-PAGE under reducing conditions and transferred to an Immobilon-P membrane (Millipore). After blocking, the filter was incubated with the rabbit polyclonal anti-collagen I antibody (1:1000 in blocking solution, Chemicon) and immune complexes were visualized using horseradish peroxidase-conjugated goat anti-rabbit antibody (1:5000 in blocking solution, Jackson ImmunoResearch) and then processed for detection by enhanced chemiluminescence (ECL, Amersham Pharmacia).

[1] = test system: renal CCR1, CCR2, CCR5 and collagen I mRNA; assay: Mouse UUO model: renal chemokine receptor and collagen I mRNA expression by real-time quantitative RT-PCR; type: in vivo, C57BL/6 mice; details: 10 days following UUO
Method: as §1
From each mouse, a specimen of both kidneys was snap frozen in liquid nitrogen and stored at −80° C. Total RNA was prepared as described in Chomczynski, P. and Sacci, N., Anal. Biochem. (1987), Vol. 162, pp. 156-159. The RNA pellet was air-dried, dissolved in DEPC-treated water, and stored at −80° C. One μg of total RNA was subjected to random-primed (Hexamer, Roche) reverse transcription at 42° C. for 1 hour using a modified MMLV reverse transcriptase (Superscript, Life Technologies). Real time RT-PCR was performed on a TaqMan ABI 7700 Sequence Detection System (PE Biosystems) using a heat-activated Taq DNA polymerase (Amplitaq Gold, PE Biosystems). Thermal cycler conditions contained holds at 50° C. for 2 minutes and 95° C. for 10 minutes followed by 40 cycles of 95° C. for 15 seconds and 60° C. for 60 seconds. GAPDH was used as reference gene. The following oligonucleotide primers (300 nM) and probes (100 nM) (PE Biosystems) were used: (a) murine collagen 1α1 (gb X54876; bp 1984-2102); forward primer: 5′-[…]-3′ (SEQ ID NO: 1); reverse primer: 5′-[…]-3′ (SEQ ID NO: 2); internal fluorescence labeled probe (FAM): 5′-[…]-3′ (SEQ ID NO: 3); (b) murine GAPDH (gb M32599, bp 730-836); forward primer: 5′-[…]-3′ (SEQ ID NO: 4); reverse primer: 5′-[…]-3′ (SEQ ID NO: 5); internal fluorescence labeled probe (VIC): 5′-[…]-3′ (SEQ ID NO: 6); (c) murine CCR1 (gb NM_009912, bp 487-586); forward primer: 5′-[…]-3′ (SEQ ID NO: 7); reverse primer: 5′-[…]-3′ (SEQ ID NO: 8); internal fluorescence labeled probe (T1): 5′-[…]-3′ (SEQ ID NO: 9); (d) murine CCR2 (gb NM_009915, bp 984-1095); forward primer: 5′-[…]-3′ (SEQ ID NO: 10); reverse primer: 5′-[…]-3′ (SEQ ID NO: 11); internal fluorescence labeled probe (T1, FAM): 5′-[…]-3′ (SEQ ID NO: 12); and (e) murine CCR5 (gb D83648, bp 1065-1191); forward primer: 5′-[…]-3′ (SEQ ID NO: 13); reverse primer: 5′-[…]-3′ (SEQ ID NO: 14); internal fluorescence labeled probe (T1, FAM): 5′-[…]-3′ (SEQ ID NO: 15).

## C[C@@H]1CN(Cc2ccc(F)cc2)CCN1C(=O)COc1ccc(Cl)cc1NC(N)=O [BX471, (2R)-1-((4-chloro-2-(ureido)phenoxy)methyl)carbonyl-2-methyl-4-(4-fluorobenzyl)piperazine]
Collagen I protein
  collagen I protein in renal extracts from the obstructed kidneys vs vehicle: decrease
[1]; p<0.05
  renal collagen I mRNA expression in obstructed kidneys vs vehicle: significantly reduced
[1]; p=0.003
  renal CCR5 mRNA expression in obstructed kidneys vs vehicle: significantly reduced
[1]; p=0.005
  renal CCR1 mRNA expression in obstructed kidneys vs vehicle: significantly reduced
[1]; p=0.07
  renal CCR2 mRNA expression in obstructed kidneys vs vehicle: reduced, although this decrease did not reach statistical significance
